Where “and” joins values, the source holds several entries; their conditions need not be identical. Identical values can stand only once. Like-named read-outs stand apart in the source and are kept apart here.
Legend:
in vitro = settings: human
human CTSL = biological target: T1, human CTSL (Homo sapiens, UniProt P07711); experiment: FRET enzymatic inhibition assay of CTSL (IC50 measurement); assay type: biochemical
T1 construct: made in house

human CTSB = biological target: T2, human CTSB (Homo sapiens, UniProt P07858); experiment: biochemical
T2 construct: […]; made in house

Calu-3 cells = settings: rep1-rep3
[1] = 0.0762939 nM, rep1-rep4, 7.62939e-05 µM
[2] = 1.2207 nM, rep1-rep4, 0.0012207 µM
[3] = 156.25 nM, rep1-rep4, 0.15625 µM
[4] = substrate Cbz-Phe-Arg-AMC, pH 5.5, mean ± SD, four replicates

T1 sequence (P07711 114-333): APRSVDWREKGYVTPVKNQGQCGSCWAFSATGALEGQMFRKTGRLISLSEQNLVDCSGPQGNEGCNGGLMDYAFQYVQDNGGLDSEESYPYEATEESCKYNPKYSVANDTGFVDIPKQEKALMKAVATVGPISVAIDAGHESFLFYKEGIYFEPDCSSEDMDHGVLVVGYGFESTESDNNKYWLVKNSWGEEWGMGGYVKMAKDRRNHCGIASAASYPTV

N=C(N)c1ccc2cc(OC(=O)c3ccc(N=C(N)N)cc3)ccc2c1 [Nafamostat]
CC50 (in vitro): 452 µM

CCOC(=O)C1OC1C(=O)NC(CC(C)C)C(=O)NCCC(C)C (centres unmarked) [E64d]
Inhibition: CTSL (human CTSL; [1]): 2.24% and 3.63% and 1.98% and 0.98% | Inhibition: CTSL (human CTSL; 0.152588 nM, rep1-rep4, 0.000152588 µM): 2.65% and 3.08% and 2.24% and -1.44% | Inhibition: CTSL (human CTSL; 0.610352 nM, rep1-rep4, 0.000610352 µM): 0.22% and 3.41% | Inhibition: CTSL (human CTSL; [2]): 6.37% and 4.18% | Inhibition: CTSL (human CTSL; 2.44141 nM, rep1-rep4, 0.00244141 µM): 4.98% and 7.04% and 0.43% and 3.83% | Inhibition: CTSL (human CTSL; 4.88281 nM, rep1-rep4, 0.00488281 µM): 0.11% and 3.42% and 5.91% and 2.54% | Inhibition: CTSL (human CTSL; 9.76562 nM, rep1-rep4, 0.00976562 µM): 8.11% and 8.13% and 3.91% and 9.27% | inhibition at 0.0195312 µM (human CTSL; 19.5312 nM, rep1-rep4): 10.1% | Inhibition: CTSL (human CTSL; 19.5312 nM, rep1-rep4, 0.0195312 µM): 17.79% and 9.24% and 15.72% | inhibition at 0.0390625 µM (human CTSL; 39.0625 nM, rep1-rep4): 26.6% | Inhibition: CTSL (human CTSL; 39.0625 nM, rep1-rep4, 0.0390625 µM): 23.44% and 25.85% and 26.69% | inhibition at 0.078125 µM (human CTSL; 78.125 nM, rep1-rep4): 45.2% | Inhibition: CTSL (human CTSL; 78.125 nM, rep1-rep4, 0.078125 µM): 44.64% and 44.43% and 46.07% | inhibition at 0.15625 µM (human CTSL; 156.25 nM, rep1-rep4): 72.7% | Inhibition: CTSL (human CTSL; [3]): 70.94% and 71.67% and 71.32% | inhibition at 0.3125 µM (human CTSL; 312.5 nM, rep1-rep4): 93.6% | Inhibition: CTSL (human CTSL; 312.5 nM, rep1-rep4, 0.3125 µM): 93.64% and 93.89% and 93.96% | inhibition at 0.625 µM (human CTSL; 625 nM, rep1-rep4): 99.2% | Inhibition: CTSL (human CTSL; 625 nM, rep1-rep4, 0.625 µM): 99.81% and 99.40% and 99.47% | inhibition at 1.25 µM (human CTSL; 1250 nM, rep1-rep4): 100% | Inhibition: CTSL (human CTSL; 1250 nM, rep1-rep4, 1.25 µM): 100.20% and 99.89% | inhibition at 2.5 µM (human CTSL; 2500 nM, rep1-rep4): 99.2% | Inhibition: CTSL (human CTSL; 2500 nM, rep1-rep4, 2.5 µM): 100.15% and 100.23% and 99.74% | inhibition at 5 µM (human CTSL; 5000 nM, rep1-rep4): 99.9% | Inhibition: CTSL (human CTSL; 5000 nM, rep1-rep4, 5 µM): 100.31% and 99.95% | inhibition at 10 µM (human CTSL; 10000 nM, rep1-rep4): 100% | Inhibition: CTSL (human CTSL; 10000 nM, rep1-rep4, 10 µM): 100.02% and 99.97% | IC50 (human CTSL; [4]): 0.0889 µM | Inhibition: CTSB (human CTSB; [1]): 3.40% and 10.64% and 11.97% and 5.82% | Inhibition: CTSB (human CTSB; [2]): -7.91% and 0.42% and 2.07% and 0.65% | inhibition at 0.15625 µM (human CTSB; 156.25 nM, rep1-rep4): 35.3% | Inhibition: CTSB (human CTSB; [3]): 44.31% and 44.26% and 38.99% | inhibition at 0.3125 µM (human CTSB; 312.5 nM, rep1-rep4): 56.2% | Inhibition: CTSB (human CTSB; 312.5 nM, rep1-rep4, 0.3125 µM): 62.85% and 55.87% and 62.55% | inhibition at 0.625 µM (human CTSB; 625 nM, rep1-rep4): 80.1% | Inhibition: CTSB (human CTSB; 625 nM, rep1-rep4, 0.625 µM): 80.11% and 80.88% and 83.45% | inhibition at 1.25 µM (human CTSB; 1250 nM, rep1-rep4): 98.7% | Inhibition: CTSB (human CTSB; 1250 nM, rep1-rep4, 1.25 µM): 92.94% and 89.91% and 97.77% | inhibition at 2.5 µM (human CTSB; 2500 nM, rep1-rep4): 95.4% | Inhibition: CTSB (human CTSB; 2500 nM, rep1-rep4, 2.5 µM): 107.12% and 95.70% and 101.34% | inhibition at 5 µM (human CTSB; 5000 nM, rep1-rep4): 105% | Inhibition: CTSB (human CTSB; 5000 nM, rep1-rep4, 5 µM): 104.22% and 97.92% and 95.52% | inhibition at 10 µM (human CTSB; 10000 nM, rep1-rep4): 97.9% | Inhibition: CTSB (human CTSB; 10000 nM, rep1-rep4, 10 µM): 102.20% and 95.59% and 101.48% | IC50 (human CTSB; [4]): 0.244 µM | CC50 (in vitro): > 1000 µM | Cytotoxicity (Calu-3 cells; 0.017 μM): 7.45% and 7.84% and 8.16% | Cytotoxicity (Calu-3 cells; 0.05 μM): 11.45% and 12.03% and 11.72% | Cytotoxicity (Calu-3 cells; 0.15 μM): 9.87% and 10.28% and 10.63% | Cytotoxicity (Calu-3 cells; 0.46 μM): 7.15% and 7.70% and 8.12% | Cytotoxicity (Calu-3 cells; 4.1 μM): 1.63% and 2.06% and 2.63% | Cytotoxicity (Calu-3 cells; 12.3 μM): -0.11% and 0.47% and 0.96% | Cytotoxicity (Calu-3 cells; 111.1 μM): -4.79% and -4.14% and -3.55% | Cytotoxicity (Calu-3 cells; 333.3 μM): 12.34% and 13.88% and 14.55% | Cytotoxicity (Calu-3 cells; 1000 μM): 23.12% and 23.57% and 24.06%

— PMC10663540, “Structure-based discovery of dual pathway inhibitors for SARS-CoV-2 entry” (Nature Communications, 2023)
